Data reported in PubChem BioAssay AID180 (DTP/NCI, 2004).
Where “and” joins values, the source holds several entries; their conditions need not be identical. Equal values may be shown once.

Tested on: BDF1 mice, Adenocarcinoma 755 s.c., tumor weight T/C
Assay: NCI In Vivo Anticancer Drug Screen. Data for tumor model Adenocarcinoma 755 (subcutaneous) in B6D2F1 (BDF1) mice
Settings: endpoint: mean tumor weight, schedule: Q01DX011 (ip), higher = larger tumour
Procedure: The antitumor activity of compounds was measured in mice bearing transplantable tumors. Survival or tumor size were measured and the results are expressed as the measurement made in the treated group (T) divided by the measurement made in the vehicle treated control group (C). The tumor model used in this assay is Adenocarcinoma 755 (subcutaneous) in B6D2F1 (BDF1) mice

In the case of CN(CCO)/N=N/c1nc[nH]c1C(N)=O, the T/C (dose: 42.0 mg/kg/injection, vehicle: carboxymethylcellulose (CMC)) is reported as 60 % of control, the T/C (dose: 93.0 mg/kg/injection, vehicle: carboxymethylcellulose (CMC)) is reported as 57 % of control and the T/C (dose: 187.0 mg/kg/injection, vehicle: carboxymethylcellulose (CMC)) is reported as 26 % of control.
For O=C(CCl)N1c2ccccc2Oc2cc3ccccc3cc21, the T/C (dose: 4.4 mg/kg/injection, vehicle: methylcellulose (MC)) was 78 % of control, the T/C (dose: 6.6 mg/kg/injection, vehicle: methylcellulose (MC)) was 62 % of control and the T/C (dose: 10.0 mg/kg/injection, vehicle: methylcellulose (MC)) was 54 % of control. The T/C (dose: 14.0 mg/kg/injection, vehicle: methylcellulose (MC)) was 45 % of control, the T/C (dose: 14.0 mg/kg/injection, vehicle: other) was 120 % of control and the T/C (dose: 28.0 mg/kg/injection, vehicle: methylcellulose (MC)) was 33 % of control. The T/C (dose: 28.0 mg/kg/injection, vehicle: other) was 87 % of control, the T/C (dose: 56.0 mg/kg/injection, vehicle: other) was 61 % of control and the T/C (dose: 112.0 mg/kg/injection, vehicle: other) was 94 % of control.
In the case of Nc1ncnc(F)c1N, the T/C (dose: 15.5 mg/kg/injection, vehicle: carboxymethylcellulose (CMC)) is reported as 106 % of control, the T/C (dose: 30.0 mg/kg/injection, vehicle: carboxymethylcellulose (CMC)) is reported as 96 % of control and the T/C (dose: 60.0 mg/kg/injection, vehicle: carboxymethylcellulose (CMC)) is reported as 123 % of control. The T/C (dose: 120.0 mg/kg/injection, vehicle: carboxymethylcellulose (CMC)) was 89 % of control.
In the case of CN(C)c1nc(N)nc(Nc2ccc(Br)cc2)c1N=O, the T/C (dose: 12.5 mg/kg/injection, vehicle: carboxymethylcellulose (CMC)) is reported as 40 % of control and the T/C (dose: 25.0 mg/kg/injection, vehicle: carboxymethylcellulose (CMC)) is reported as 51 % of control.
For C=CCn1cnc2c(=S)nc[nH]c21, the T/C (dose: 0.37 mg/kg/injection, vehicle: saline) was 49 % of control, the T/C (dose: 0.5 mg/kg/injection, vehicle: saline) was 82 % of control and the T/C (dose: 0.75 mg/kg/injection, vehicle: saline) was 72 % of control. For the same compound, the T/C (dose: 1.0 mg/kg/injection, vehicle: saline) was 48 % of control, the T/C (dose: 2.0 mg/kg/injection, vehicle: alkali diluted with saline) was 7 % of control and the T/C (dose: 2.25 mg/kg/injection, vehicle: alkali diluted with saline) was 3 % of control. The T/C (dose: 2.75 mg/kg/injection, vehicle: alkali diluted with saline) was 5 % of control, the T/C (dose: 3.0 mg/kg/injection, vehicle: alkali diluted with saline) was 9 % of control and the T/C (dose: 6.0 mg/kg/injection, vehicle: alkali diluted with saline) was 1 % of control. The T/C (dose: 12.5 mg/kg/injection, vehicle: alkali diluted with saline) was 2 % of control.
In the case of Nc1nc(SCc2cccnc2)c2ncn(C3OC(CO)C(O)C3O)c2n1 (stereo unspecified), the T/C (dose: 1.5 mg/kg/injection, vehicle: methylcellulose (MC)) is reported as 92 % of control, the T/C (dose: 3.1 mg/kg/injection, vehicle: methylcellulose (MC)) is reported as 87 % of control and the T/C (dose: 6.2 mg/kg/injection, vehicle: methylcellulose (MC)) is reported as 12 % of control and 15 % of control.
With Cc1ccccc1N(C=O)c1ccccc1C the T/C (dose: 250.0 mg/kg/injection, vehicle: methylcellulose (MC)) was 108 % of control, the T/C (dose: 500.0 mg/kg/injection, vehicle: methylcellulose (MC)) was 120 % of control and the T/C (dose: 1000.0 mg/kg/injection, vehicle: methylcellulose (MC)) was 110 % of control.
For Cc1ccc(C(=O)Nc2ccc(S(=O)(=O)O)c3cc(S(=O)(=O)O)cc(S(=O)(=O)O)c23)cc1NC(=O)c1cccc(NC(=O)Nc2cccc(C(=O)Nc3cc(C(=O)Nc4ccc(S(=O)(=O)O)c5cc(S(=O)(=O)O)cc(S(=O)(=O)O)c45)ccc3C)c2)c1 (tested in a mixture with another compound), the T/C (dose: 170.0 mg/kg/injection, vehicle: methylcellulose (MC)) was 88 % of control and 82 % of control and the T/C (dose: 680.0 mg/kg/injection, vehicle: methylcellulose (MC)) was 98 % of control.
